Assay results published in patent US20100168090A1, “Active Ingredient Combinations With Insecticidal and Acaricidal Properties” (BAYER CROPSCIENCE AG, priority 2006, published 2010).

Legend:
Assay type in all cases: in vivo
[1] = system: larvae of the mustard beetle (Phaedon cochleariae); assay: Phaedon cochleariae larvae test (cabbage leaves dipped); conditions: single active compound
Text: (§1) The expected action for a given combination of two active compounds can be calculated as follows, according to S. R. Colby, Weeds 15 (1967), 20-22:
(§2) If • X is the kill rate, expressed as a percentage of the untreated control, when employing active compound A at an application rate of m g/ha or in a concentration of m ppm, • Y is the kill rate, expressed as a percentage of the untreated control, when employing active compound B at an application rate of n g/ha or in a concentration of n ppm and • E is the kill rate, expressed as a percentage of the untreated control, when employing active compounds A and B at application rates of m and n g/ha or in a concentration of m and n ppm, then
(§3) If the actual kill rate exceeds the calculated value, the kill of the combination is superadditive, i.e. a synergistic effect is present. In this case, the actually observed kill rate must exceed the value calculated using the above formula for the expected kill rate (E).
(§4) Solvent: 7 parts by weight of dimethylformamide Emulsifier: 2 parts by weight of alkylaryl polyglycol ether
To produce a suitable preparation of active compound, 1 part by weight of active compound is mixed with the stated amounts of solvents and emulsifier, and the concentrate is diluted with emulsifier-containing water to the desired concentration.
Cabbage leaves (Brassica oleracea) are treated by being dipped in the active compound preparation of the desired concentration and are populated with larvae of the mustard beetle (Phaedon cochleariae) while the leaves are still moist.
After the desired period of time, the kill in % is determined. 100% means that all beetle larvae have been killed; 0% means that none of the beetle larvae have been killed. The kill rates determined are entered into Colby's formula.

[2] = system: green peach aphid (Myzus persicae); assay: Myzus persicae test (cabbage leaves dipped); conditions: single active compound; for Kill in % after 1 d: Table A 1
Text: as §1, §2, §3, §4
(§5) To produce a suitable preparation of active compound, 1 part by weight of active compound is mixed with the stated amounts of solvent and emulsifier, and the concentrate is diluted with emulsifier-containing water to the desired concentration.
Cabbage leaves (Brassica oleracea) which are heavily infested by the green peach aphid (Myzus persicae) are treated by being dipped into the active compound preparation of the desired concentration.
(§6) After the desired period of time, the kill in % is determined. 100% means that all aphids have been killed; 0% means that none of the aphids have been killed. The kill rates determined are entered into Colby's formula.

[3] = system: cotton aphid (Aphis gossypii); assay: Aphis gossypii test (cotton leaves dipped); conditions: single active compound
Text: as §1, §2, §3, §4, §5
Cotton leaves (Gossypium herbaceum) which are heavily infested by the cotton aphid (Aphis gossypii) are treated by being dipped into the active compound preparation of the desired concentration.
as §6

CO[C@H]1CC[C@]2(CC1)NC(=O)C(c1cc(C)ccc1C)=C2O [compound (I-1)]
Kill in % after 6 d ([1]; 20 ppm): 10% | Kill in % after 6 d ([2]; Table A 2, 0.8 ppm): 5%

CCOC(=O)OC1=C(c2cc(C)ccc2C)C(=O)N[C@]12CC[C@@H](OC)CC2 [compound (I-2)]
Kill in % after 6 d ([1]; 20 ppm): 35% | Kill in % after 1 d ([3]; 20 ppm): 5% | Kill in % after 1 d ([2]; 4 ppm): 0% | Kill in % after 6 d ([2]; Table A 3, 4 ppm): 80%

CN1COCN(Cc2cnc(Cl)s2)/C1=N\[N+](=O)[O-] [thiamethoxam (IIg), thiamethoxam]
Kill in % after 6 d ([1]; 0.8 ppm): 0%

COC1CCC2(CC1)NC(=O)C(c1cc(C)ccc1C)=C2O (stereo not shown) [compound (I-1-a)]
Kill in % after 6 d ([1]; 20 ppm): 20% | Kill in % after 6 d ([2]; Table A 2, 0.8 ppm): 0%

CCOC(=O)OC1=C(c2cc(C)ccc2C)C(=O)NC12CCC(OC)CC2 (stereo not shown) [compound (I-2-a)]
Kill in % after 6 d ([1]; 20 ppm): 10% | Kill in % after 1 d ([3]; 20 ppm): 10% | Kill in % after 1 d ([2]; 4 ppm): 0% | Kill in % after 6 d ([2]; Table A 3, 4 ppm): 85%

O=[N+]([O-])/N=C1\NCCN1Cc1cnc(Cl)s1 [imidaclothiz (II n), imidaclothiz]
Kill in % after 6 d ([2]; Table A 3, 0.16 ppm): 0%

CN/C(=N\[N+](=O)[O-])NCc1cnc(Cl)s1 [clothianidin (IIm), clothianidin]
Kill in % after 6 d ([1]; 0.8 ppm): 25%

O=[N+]([O-])NC1=NCCN1Cc1ccc(Cl)nc1 [imidacloprid (II-a), imidacloprid]
Kill in % after 6 d ([1]; 0.8 ppm): 0% | Kill in % after 1 d ([2]; 0.16 ppm): 15% | Kill in % after 6 d ([2]; Table A 2, 0.032 ppm): 5%

CN/C(=N/CC1CCOC1)N[N+](=O)[O-] (stereo not shown) [dinotefuran (II l), dinotefuran]
Kill in % after 1 d ([3]; 4 ppm): 30% | Kill in % after 6 d ([2]; Table A 3, 0.16 ppm): 0%

N#C/N=C1\SCCN1Cc1ccc(Cl)nc1 [thiacloprid (IIk), thiacloprid]
Kill in % after 6 d ([1]; 0.8 ppm): 0%

C/C(=N\C#N)N(C)Cc1ccc(Cl)nc1 [acetamiprid (II-e), acetamiprid]
Kill in % after 6 d ([2]; Table A 3, 0.16 ppm): 10%
